The results in this text go back to US12528808B2, “Therapy for erythropoietic protoporphyria (EPP) and X-linked protoporphyria (XLP)” (UNIVERSITY OF PITTSBURGH-OF THE COMMONWEALTH SYSTEM OF …, priority 2019, dated 2026).

SMILES strings stand for the structures.

Data set [1] can be described thus: Metabolic stability assay, incubation with human liver microsomes (HLM). In kind it is in vitro ADME. As to conditions: remaining parent compound. How it is done: Metabolic Stability Assay.
After the incubation (0-60 min), the remaining parent compounds were analyzed by UPLC-QTOFMS.
(Microsomes from liver hold many membrane-bound enzymes, among them those of drug oxidation.)

The target in a further data set is T1, ABCG2 (Homo sapiens, UniProt Q9UNQ0).
T1 construct: developed using the A549 cancer cell line; endogenous in cells; host or cells: A549 cancer cell line
T1 sequence (Q9UNQ0 1-655): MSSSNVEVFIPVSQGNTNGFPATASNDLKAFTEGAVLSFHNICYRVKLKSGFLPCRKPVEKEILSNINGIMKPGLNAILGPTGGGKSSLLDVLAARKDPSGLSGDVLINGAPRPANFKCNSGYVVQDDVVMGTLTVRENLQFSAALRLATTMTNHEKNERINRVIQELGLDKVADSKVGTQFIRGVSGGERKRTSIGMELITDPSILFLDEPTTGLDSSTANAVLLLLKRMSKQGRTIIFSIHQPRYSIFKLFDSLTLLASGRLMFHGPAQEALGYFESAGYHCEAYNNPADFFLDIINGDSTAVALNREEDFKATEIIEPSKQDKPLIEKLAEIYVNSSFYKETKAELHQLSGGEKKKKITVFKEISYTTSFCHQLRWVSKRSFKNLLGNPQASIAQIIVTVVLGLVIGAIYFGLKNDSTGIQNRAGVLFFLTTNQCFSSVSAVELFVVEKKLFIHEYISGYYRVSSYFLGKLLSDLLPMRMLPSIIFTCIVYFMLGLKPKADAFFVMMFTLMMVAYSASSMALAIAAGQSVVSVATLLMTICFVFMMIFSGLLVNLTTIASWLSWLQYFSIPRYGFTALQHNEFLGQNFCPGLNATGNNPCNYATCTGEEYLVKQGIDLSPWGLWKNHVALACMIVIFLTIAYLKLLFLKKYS
In words: Protoporphyrin IX (PPIX)-based ABCG2 inhibition assay using the A549 cancer cell line. As to conditions: read-out: IC50, the half maximal inhibitory concentration. From the text: A Protoporphyrin IX(PPIX)-based ABCG2 inhibition assay was developed using the A549 cancer cell line.

In the case of `COc1ccc2c3c([nH]c2c1)[C@H](CC(C)C)N1C(=O)[C@H](CCCOC(C)(C)C)NC(=O)[C@@H]1C3` [Compound K7, (3S,6S,12aS)-3-(3-(tert-butoxy)propyl)-6-isobutyl-9-methoxy-2,3,12,12a-tetrahydropyrazino[1′,2′:1,6]pyrido[3,4-b]indole-1,4(6H,7H)-dione], the “HLM stability (% vs 0 min) 30 min” value in data set [1] (30 min) was determined as 16%. The “HLM stability (% vs 0 min) 60 min” value in data set [1] (60 min) was determined as 9%. The IC50 at ABCG2 came out at 90 nM. The same compound returned a CC50 in the data set “in vitro” greater than 100000 nM.
